Measurements as given in patent US6916446B1, “Bioreactor method, apparatus and product thereby” (The United States of America as represented by the …, priority 2002, dated 2005).
Like-named read-outs stand apart in the source and are kept apart here.

Tested on: strain IMB-1
Experiment: Growth of strain IMB-1 on substrates in mineral salts medium (Balch tubes)
[1] = substrate as electron donor / carbon and energy source

| Compound | growth of strain IMB-1 on the substrate (in words) | growth of strain IMB-1 on the substrate (in words) [1] |
| --- | --- | --- |
| CC(=O)O [acetate] | grows |  |
| CO [methanol] |  | no growth occurred |
| O=C(O)/C=C/C(=O)O [fumarate] |  | no growth occurred |
| O=C(O)CCC(=O)O [succinate] |  | no growth occurred |
| O=C(O)CC(O)(CC(=O)O)C(=O)O [citrate] |  | no growth occurred |
| CN [monomethylamine] |  | support growth |
| O=C(O)CC(O)C(=O)O (stereo not shown) [malate] |  | weak growth |
